Laboratory results taken from ChEMBL document CHEMBL3259791, “Discovery of (E)-3-((styrylsulfonyl)methyl)pyridine and (E)-2-((styrylsulfonyl)methyl)pyridine derivatives as anticancer agents: synthesis, structure-activity relationships, and biological activities” (J Med Chem, 2014).
Calls of active or inactive are those of the source. No cut-off for these calls is given here.

Assays:
[1] = Elimination half life in mouse at 10 mg/kg, po after 24 hrs; assay type: ADME, organism-based; set-up: dose 10 mg/kg, route oral; conditions: in vivo, read-out: beta t1/2 (converted)
A2780 [2] = assay: Induction of apoptosis in human A2780 cells assessed as caspase-3/7 activation at 1 uM after 24 hrs by using Apo-ONE homogeneous caspase-3/7 kit; assay type: functional, cell-based
[3] = Cmax in mouse at 10 mg/kg, po after 24 hrs; assay type: ADME, organism-based; set-up: dose 10 mg/kg, route oral; conditions: in vivo
WI-38 = assay: Selectivity ratio of IC50 for human WI38 cells to IC50 for ER negative human MDA-MB-231 cells; assay type: functional
DU-145 = assay: Ratio of ON01910 IC50 to compound IC50 for AR negative human DU145 cells; assay type: functional
PANC-1 = assay: Ratio of ON01910 IC50 to compound IC50 for human PANC1 cells; assay type: functional
MCF7 [4] = assay: Ratio of ON01910 IC50 to compound IC50 for ER positive human MCF7 cells; assay type: functional
LNCaP = assay: Ratio of ON01910 IC50 to compound IC50 for AR positive human LNCAP cells; assay type: functional
MCF7 [5] = assay: Selectivity ratio of IC50 for human WI38 cells to IC50 for ER positive human MCF7 cells; assay type: functional
[6] = Oral bioavailability (0 to t) in mouse at 40 mg/kg after 24 hrs; assay type: ADME, organism-based; conditions: in vivo
A2780 [7] = assay: Induction of apoptosis in human A2780 cells assessed as caspase-3/7 activation at 0.06 uM after 24 hrs by using Apo-ONE homogeneous caspase-3/7 kit; assay type: functional, cell-based
[8] = Elimination half life in mouse at 40 mg/kg, po after 24 hrs; assay type: ADME, organism-based; set-up: dose 40 mg/kg, route oral; conditions: in vivo, read-out: beta t1/2 (converted)
A2780 [9] = assay: Ratio of ON01910 IC50 to compound IC50 for human A2780 cells; assay type: functional
MDA-MB-231 = assay: Ratio of ON01910 IC50 to compound IC50 for ER negative human MDA-MB-231 cells; assay type: functional

With COc1cc(OC)c(/C=C/S(=O)(=O)Cc2ccc(OC)c(NS(C)(=O)=O)n2)c(OC)c1 the half-life [1] was 4.6 h, the Activity (A2780 [2]) was “Active” and the Cmax [3] was 2.1 µM.

For COc1cc(OC)c(/C=C/S(=O)(=O)Cc2ccc(OC)c(N)n2)c(OC)c1, the “Ratio IC50” value (WI-38) was over 1400, the “Ratio IC50” value (DU-145) was 10 and the “Ratio IC50” value (PANC-1) was 10. The “Ratio IC50” value (MCF7 [4]) was 10, the “Ratio IC50” value (LNCaP) was 10 and the “Ratio IC50” value (MCF7 [5]) was over 1400. The bioavailability [6] was 44%, the Activity (A2780 [7]) was “Active” and the half-life [8] was 77.1 h. For the same compound, the “Ratio IC50” value (A2780 [9]) was 10 and the “Ratio IC50” value (MDA-MB-231) was 10.
